According to the supplement of paper PMC10307832:

Columns and labels:
Assay in all cases: relative viability (nuclei count vs DMSO), 5 days (fraction); higher = more cells survive
NCI-H1944 = tested on: NCI-H1944
In short: (§1)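 Each reported value is a median over duplicate plates. It expresses relative viability: treated-well nuclei count divided by vehicle-well nuclei count. Lung cancer cell lines in 1536-well plates were dosed by pin tool a day after seeding, alone with one drug or with a fixed anchor-drug dose plus five library-drug doses (not always all listed) in √10 steps, and nuclei were counted after 5 days.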

NCI-H1651 = tested on: NCI-H1651
In short: as §1

NCI-H1395 = tested on: NCI-H1395
In short: as §1

EMC-BAC-2 = tested on: EMC-BAC-2
In short: as §1

EPLC-272H = tested on: EPLC-272H
In short: as §1

NCI-H520 = tested on: NCI-H520
In short: as §1

NCI-H838 = tested on: NCI-H838
In short: as §1

LU99A = tested on: LU99A
In short: as §1

NCI-H2087 = tested on: NCI-H2087
In short: as §1

ChaGo-K-1 = tested on: ChaGo-K-1
In short: as §1

HCC-827 = tested on: HCC-827
In short: as §1

NCI-H1793 = tested on: NCI-H1793
In short: as §1

HCC-44 = tested on: HCC-44
In short: as §1

NCI-H2405 = tested on: NCI-H2405
In short: as §1

NCI-H650 = tested on: NCI-H650
In short: as §1

NCI-H2023 = tested on: NCI-H2023
In short: as §1

LCLC-103H = tested on: LCLC-103H
In short: as §1

COR-L23 = tested on: COR-L23
In short: as §1

NCI-H2085 = tested on: NCI-H2085
In short: as §1

SK-MES-1 = tested on: SK-MES-1
In short: as §1

H3255 = tested on: H3255
In short: as §1

`O=c1cc(N2CCOCC2)oc2c(-c3cccc4c3sc3ccccc34)cccc12` + CC(=O)c1c(C)c2cnc(Nc3ccc(N4CCNCC4)cn3)nc2n(C2CCCC2)c1=O [Palbociclib] (partner 0.5 µM) showed a relative viability (NCI-H1944; first compound 0.01 µM) of 0.331, a relative viability (NCI-H1944; first compound 0.03162 µM) of 0.332 and a relative viability (NCI-H1944; first compound 0.1 µM) of 0.363. For the same compound, the relative viability (NCI-H1944; first compound 0.3162 µM) was 0.338, the relative viability (NCI-H1944; first compound 1 µM) was 0.32 and the relative viability (NCI-H1651; first compound 0.01 µM) was 0.528. It also gave a relative viability (NCI-H1651; first compound 0.03162 µM) of 0.486, a relative viability (NCI-H1651; first compound 0.1 µM) of 0.555 and a relative viability (NCI-H1651; first compound 0.3162 µM) of 0.555. The relative viability (NCI-H1651; first compound 1 µM) was 0.513, the relative viability (NCI-H1395; first compound 0.03162 µM) was 0.547 and the relative viability (NCI-H1395; first compound 0.1 µM) was 0.634. It also gave a relative viability (NCI-H1395; first compound 0.3162 µM) of 0.631, a relative viability (NCI-H1395; first compound 1 µM) of 0.637 and a relative viability (EMC-BAC-2; first compound 0.01 µM) of 0.525. The relative viability (EMC-BAC-2; first compound 0.03162 µM) was 0.541, the relative viability (EMC-BAC-2; first compound 0.1 µM) was 0.55 and the relative viability (EMC-BAC-2; first compound 0.3162 µM) was 0.51. For the same compound, the relative viability (EMC-BAC-2; first compound 1 µM) was 0.497, the relative viability (EPLC-272H; first compound 0.01 µM) was 0.302 and the relative viability (EPLC-272H; first compound 0.03162 µM) was 0.31. For the same compound, the relative viability (EPLC-272H; first compound 0.1 µM) was 0.274, the relative viability (EPLC-272H; first compound 0.3162 µM) was 0.325 and the relative viability (EPLC-272H; first compound 1 µM) was 0.325. It also gave a relative viability (NCI-H520; first compound 0.01 µM) of 0.238, a relative viability (NCI-H520; first compound 0.03162 µM) of 0.224 and a relative viability (NCI-H520; first compound 0.1 µM) of 0.207. It also gave a relative viability (NCI-H520; first compound 0.3162 µM) of 0.235, a relative viability (NCI-H520; first compound 1 µM) of 0.202 and a relative viability (NCI-H838; first compound 0.01 µM) of 0.26. It also gave a relative viability (NCI-H838; first compound 0.03162 µM) of 0.182, a relative viability (NCI-H838; first compound 0.1 µM) of 0.222 and a relative viability (NCI-H838; first compound 0.3162 µM) of 0.228. The relative viability (NCI-H838; first compound 1 µM) was 0.202, the relative viability (LU99A; first compound 0.01 µM) was 0.393 and the relative viability (LU99A; first compound 0.03162 µM) was 0.414. It also gave a relative viability (LU99A; first compound 0.1 µM) of 0.414, a relative viability (LU99A; first compound 0.3162 µM) of 0.379 and a relative viability (LU99A; first compound 1 µM) of 0.488. It also gave a relative viability (NCI-H2087; first compound 0.01 µM) of 0.218, a relative viability (NCI-H2087; first compound 0.03162 µM) of 0.245 and a relative viability (NCI-H2087; first compound 0.1 µM) of 0.221. The relative viability (NCI-H2087; first compound 0.3162 µM) was 0.229, the relative viability (NCI-H2087; first compound 1 µM) was 0.217 and the relative viability (ChaGo-K-1; first compound 0.01 µM) was 0.884. It also gave a relative viability (ChaGo-K-1; first compound 0.03162 µM) of 0.91, a relative viability (ChaGo-K-1; first compound 0.1 µM) of 0.964 and a relative viability (ChaGo-K-1; first compound 0.3162 µM) of 0.947. It also gave a relative viability (ChaGo-K-1; first compound 1 µM) of 0.954, a relative viability (HCC-827; first compound 0.01 µM) of 0.52 and a relative viability (HCC-827; first compound 0.03162 µM) of 0.485. For the same compound, the relative viability (HCC-827; first compound 0.1 µM) was 0.457, the relative viability (HCC-827; first compound 0.3162 µM) was 0.53 and the relative viability (HCC-827; first compound 1 µM) was 0.47. For the same compound, the relative viability (NCI-H1793; first compound 0.01 µM) was 0.299, the relative viability (NCI-H1793; first compound 0.03162 µM) was 0.295 and the relative viability (NCI-H1793; first compound 0.1 µM) was 0.314. For the same compound, the relative viability (NCI-H1793; first compound 0.3162 µM) was 0.266, the relative viability (NCI-H1793; first compound 1 µM) was 0.234 and the relative viability (HCC-44; first compound 0.01 µM) was 1.01. It also gave a relative viability (HCC-44; first compound 0.03162 µM) of 1.02, a relative viability (HCC-44; first compound 0.1 µM) of 0.955 and a relative viability (HCC-44; first compound 0.3162 µM) of 0.991. It also gave a relative viability (HCC-44; first compound 1 µM) of 1.02, a relative viability (NCI-H2405; first compound 0.01 µM) of 0.566 and a relative viability (NCI-H2405; first compound 0.03162 µM) of 0.542. The relative viability (NCI-H2405; first compound 0.1 µM) was 0.531, the relative viability (NCI-H2405; first compound 0.3162 µM) was 0.513 and the relative viability (NCI-H2405; first compound 1 µM) was 0.527. It also gave a relative viability (NCI-H650; first compound 0.01 µM) of 0.348, a relative viability (NCI-H650; first compound 0.03162 µM) of 0.383 and a relative viability (NCI-H650; first compound 0.3162 µM) of 0.356. For the same compound, the relative viability (NCI-H650; first compound 1 µM) was 0.347, the relative viability (NCI-H2023; first compound 0.01 µM) was 0.436 and the relative viability (NCI-H2023; first compound 0.03162 µM) was 0.325. It also gave a relative viability (NCI-H2023; first compound 0.1 µM) of 0.462, a relative viability (NCI-H2023; first compound 0.3162 µM) of 0.337 and a relative viability (NCI-H2023; first compound 1 µM) of 0.346. It also gave a relative viability (LCLC-103H; first compound 0.01 µM) of 0.446, a relative viability (LCLC-103H; first compound 0.03162 µM) of 0.439 and a relative viability (LCLC-103H; first compound 0.1 µM) of 0.513. It also gave a relative viability (LCLC-103H; first compound 0.3162 µM) of 0.514, a relative viability (LCLC-103H; first compound 1 µM) of 0.43 and a relative viability (COR-L23; first compound 0.01 µM) of 0.289. It also gave a relative viability (COR-L23; first compound 0.03162 µM) of 0.303, a relative viability (COR-L23; first compound 0.1 µM) of 0.317 and a relative viability (COR-L23; first compound 0.3162 µM) of 0.301. For the same compound, the relative viability (COR-L23; first compound 1 µM) was 0.316, the relative viability (NCI-H2085; first compound 0.01 µM) was 0.467 and the relative viability (NCI-H2085; first compound 0.03162 µM) was 0.455. It also gave a relative viability (NCI-H2085; first compound 0.1 µM) of 0.492, a relative viability (NCI-H2085; first compound 0.3162 µM) of 0.512 and a relative viability (NCI-H2085; first compound 1 µM) of 0.452. The relative viability (SK-MES-1; first compound 0.01 µM) was 0.274, the relative viability (SK-MES-1; first compound 0.03162 µM) was 0.343 and the relative viability (SK-MES-1; first compound 0.1 µM) was 0.359. The relative viability (SK-MES-1; first compound 0.3162 µM) was 0.341, the relative viability (SK-MES-1; first compound 1 µM) was 0.295 and the relative viability (H3255; first compound 0.01 µM) was 0.314. The relative viability (H3255; first compound 0.03162 µM) was 0.325, the relative viability (H3255; first compound 0.1 µM) was 0.306 and the relative viability (H3255; first compound 0.3162 µM) was 0.314. For the same compound, the relative viability (H3255; first compound 1 µM) was 0.312.
